Laboratory results as given in patent publication US20230365553A1, “COMPOUNDS AND COMPOSITIONS FOR TREATING CONDITIONS ASSOCIATED WITH STING ACTIVITY” (IFM Due, Inc., priority 2020, published 2023).

Molecular target: T1, STING (Homo sapiens, UniProt Q86WV6, G230A/H232R/R293Q/R71H)
T1 construct: host or cells: THP1-Dual KO-IFNAR2 cells
Experiment: STING reporter assay: luciferase reporter activity in THP1-Dual KO-IFNAR2 cells stimulated with 2′3′cGAMP
Format: cell-based
Details: 15 μM 2′3′cGAMP, 24h, read-out: hSTING EC50
Protocol: STING pathway activation by the compounds described herein was measured using THP 1-Dual™ cells (KO-IFNAR2).
THP1-Dual™ KO-IFNAR2 Cells (obtained from invivogen) were maintained in RPMI, 10% FCS, 5 ml P/S, 2 mM L-glut, 10 mM Hepes, and 1 mM sodium pyruvate. Compounds were spotted in empty 384 well tissue culture plates (Greiner 781182) by Echo for a final concentration of 0.0017-100 μM. Cells were plated into the TC plates at 40 μL per well, 2×10E6 cells/mL. For activation with STING ligand, 2′3′cGAMP (MW 718.38, obtained from Invivogen), was prepared in Optimem media.
The following solutions were prepared for each 1×384 plate: • Solution A: 2 mL Optimem with one of the following stimuli: • 60 μL of 10 mM 2′3′cGAMP→150 μM stock • Solution B: 2 mL Optimem with 60 μL Lipofectamine 2000→Incubate 5 min at RT
2 mL of solution A and 2 ml Solution B was mixed and incubated for 20 min at room temperature (RT). 20 μL of transfection solution (A+B) was added on top of the plated cells, with a final 2′3′cGAMP concentration of 15 μM. The plates were then centrifuged immediately at 340 g for 1 minute, after which they were incubated at 37° C., 5% CO2, >98% humidity for 24h. Luciferase reporter activity was then measured. EC50 values were calculated by using standard methods known in the art.
Luciferase reporter assay: 10 μL of supernatant from the assay was transferred to white 384-plate with flat bottom and squared wells. One pouch of QUANTI-Luc™ Plus was dissolved in 25 mL of water. 100 μL of QLC Stabilizer per 25 mL of QUANTI-Luc™ Plus solution was added. 50 μL of QUANTI-Luc™ Plus/QLC solution per well was then added. Luminescence was measured on a Platereader (e.g., Spectramax I3X (Molecular Devices GF3637001)).
Luciferase reporter activity was then measured. EC50 values were calculated by using standard methods known in the art.

T1 sequence (Q86WV6 whole entry R71H/G230A/H232R/R293Q): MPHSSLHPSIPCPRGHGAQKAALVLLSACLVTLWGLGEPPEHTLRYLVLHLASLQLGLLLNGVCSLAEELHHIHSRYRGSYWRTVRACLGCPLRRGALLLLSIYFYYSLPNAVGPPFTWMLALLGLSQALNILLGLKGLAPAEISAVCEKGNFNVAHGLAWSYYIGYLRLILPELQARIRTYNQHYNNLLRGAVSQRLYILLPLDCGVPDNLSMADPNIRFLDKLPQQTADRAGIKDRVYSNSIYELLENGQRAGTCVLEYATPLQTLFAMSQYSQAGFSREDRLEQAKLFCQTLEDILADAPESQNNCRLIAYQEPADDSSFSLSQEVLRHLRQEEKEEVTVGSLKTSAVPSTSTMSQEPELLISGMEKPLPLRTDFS

Compound	EC50
CCc1ccc(-n2cc(-c3ccc4[nH]cc(NC(C)=O)c4c3)cn2)cc1 [Compound 134, N-(5-(1-(4-ethylphenyl)-1H-pyrazol-4-yl)-1H-indol-3-yl)acetamide]	40 to 200 nM
CCC(=O)Nc1c[nH]c2ccc(-c3ccc(CN4CCOCC4)s3)cc12 [Compound 135, N-(5-(5-(morpholinomethyl)thiophen-2-yl)-1H-indol-3-yl)propionamide]	5000 to 100000 nM
CCC(=O)Nc1c[nH]c2ccc(-c3cc(C#N)cs3)cc12 [Compound 136, N-(5-(4-cyanothiophen-2-yl)-1H-indol-3-yl)propionamide]	1000 to 5000 nM
CCC(=O)Nc1c[nH]c2ccc(-c3cnn(C4CCCC4)c3)cc12 [Compound 137, N-(5-(1-cyclopentyl-1H-pyrazol-4-yl)-1H-indol-3-yl)propionamide]	5000 to 100000 nM
CCC(=O)Nc1c[nH]c2ccc(-c3cnn(-c4ccccn4)c3)cc12 [Compound 138, N-(5-(1-(pyridin-2-yl)-1H-pyrazol-4-yl)-1H-indol-3-yl)propionamide]	5000 to 100000 nM
CCC(=O)Nc1c[nH]c2ccc(-c3cnn(-c4ccc(C(F)(F)F)cc4)c3)cc12 [Compound 139, N-(5-(1-(4-(trifluoromethyl)phenyl)-1H-pyrazol-4-yl)-1H-indol-3-yl)propionamide]	200 to 1000 nM
CCC(=O)Nc1c[nH]c2ccc(C3=CCN(c4ccccn4)CC3)cc12 [Compound 140, N-(5-(3,6-dihydro-2H-[1,2′-bipyridin]-4-yl)-1H-indol-3-yl)propionamide]	5000 to 100000 nM
CCC(=O)Nc1c[nH]c2ccc(C3=CCCCC3)cc12 [Compound 141, N-(5-(cyclohex-1-en-1-yl)-1H-indol-3-yl)propionamide]	5000 to 100000 nM
CCC(=O)Nc1c[nH]c2ccc(-c3ccnn3C)cc12 [Compound 142, N-(5-(1-methyl-1H-pyrazol-5-yl)-1H-indol-3-yl)propionamide]	1000 to 5000 nM
CCC(=O)Nc1c[nH]c2ccc(-c3ccc(OC(F)(F)F)cc3)cc12 [Compound 143, N-(5-(4-(trifluoromethoxy)phenyl)-1H-indol-3-yl)propionamide]	1000 to 5000 nM
CCC(=O)Nc1c[nH]c2ccc(-c3ccc(C4(C#N)CC4)cc3)cc12 [Compound 144, N-(5-(4-(1-cyanocyclopropyl)phenyl)-1H-indol-3-yl)propionamide]	5000 to 100000 nM
CCC(=O)Nc1c[nH]c2ccc(-c3cccc(COC)c3)cc12 [Compound 145, N-(5-(3-(methoxymethyl)phenyl)-1H-indol-3-yl)propionamide]	5000 to 100000 nM
CCC(=O)Nc1c[nH]c2ccc(-c3cccc(C4CC4)c3)cc12 [Compound 146, N-(5-(3-cyclopropylphenyl)-1H-indol-3-yl)propionamide]	1000 to 5000 nM
CCC(=O)Nc1c[nH]c2ccc(-c3ccc(N4CCCC4)nc3)cc12 [Compound 147, N-(5-(6-(pyrrolidin-1-yl)pyridin-3-yl)-1H-indol-3-yl)propionamide]	5000 to 100000 nM
CCC(=O)Nc1c[nH]c2ccc(-c3cnn(CC4CC4)c3)cc12 [Compound 148, N-(5-(1-(cyclopropylmethyl)-1H-pyrazol-4-yl)-1H-indol-3-yl)propionamide]	5000 to 100000 nM
CCC(=O)Nc1c[nH]c2ccc(-c3cnn(-c4cccc(Cl)c4)c3)cc12 [Compound 149, N-(5-(1-(3-chlorophenyl)-1H-pyrazol-4-yl)-1H-indol-3-yl)propionamide]	200 to 1000 nM
CCC(=O)Nc1c[nH]c2ccc(-c3cnn(-c4ccccc4)c3)cc12 [Compound 150, N-(5-(1-phenyl-1H-pyrazol-4-yl)-1H-indol-3-yl)propionamide]	200 to 1000 nM
CCC(=O)Nc1c[nH]c2ccc(-c3cnn(-c4ccc(CC)cc4)c3)cc12 [Compound 151, N-(5-(1-(4-ethylphenyl)-1H-pyrazol-4-yl)-1H-indol-3-yl)propionamide]	40 to 200 nM
CCC(=O)Nc1c[nH]c2ccc(-c3cnn(-c4ccc(CC)cc4)c3)nc12 [Compound 164, N-(5-(1-(4-ethylphenyl)-1H-pyrazol-4-yl)-1H-pyrrolo[3,2-b]pyridin-3-yl)propionamide]	5000 to 100000 nM
CCc1ccc(-n2cc(-c3ccc4[nH]cc(NC(=O)C5CCCCO5)c4c3)cn2)cc1 (stereo not drawn) [Compound 165, N-(5-(1-(4-ethylphenyl)-1H-pyrazol-4-yl)-1H-indol-3-yl)tetrahydro-2H-pyran-2-carboxamide]	200 to 1000 nM
CCc1ccc(-n2cc(-c3ccc4[nH]cc(NC(=O)C(O)C(F)(F)F)c4c3)cn2)cc1 (stereo not drawn) [Compound 166, N-(5-(1-(4-ethylphenyl)-1H-pyrazol-4-yl)-1H-indol-3-yl)-3,3,3-trifluoro-2-hydroxypropanamide]	1000 to 5000 nM
CC(=O)Nc1c[nH]c2ccc(-c3cnn(-c4ccc(CC(F)(F)F)cc4)c3)cc12 [Compound 167, N-(5-(1-(4-(2,2,2-trifluoroethyl)phenyl)-1H-pyrazol-4-yl)-1H-indol-3-yl)acetamide]	40 to 200 nM

Other lines, results leading:

EC50	Compound
200 to 1000 nM	CC(=O)Nc1c[nH]c2ccc(-c3cnn(-c4ccc(Cl)c(Cl)c4)c3)cc12 [Compound 168, N-(5-(1-(3,4-dichlorophenyl)-1H-pyrazol-4-yl)-1H-indol-3-yl)acetamide]
200 to 1000 nM	CC(=O)Nc1c[nH]c2ccc(-c3cnn(-c4ccc(C5CC(F)(F)C5)c(Cl)c4)c3)cc12 [Compound 169, N-(5-(1-(3-chloro-4-(3,3-difluorocyclobutyl)phenyl)-1H-pyrazol-4-yl)-1H-indol-3-yl)acetamide]
1000 to 5000 nM	CC(=O)Nc1c[nH]c2ccc(-c3cnn(-c4ccc(F)c(F)c4)c3)cc12 [Compound 170, N-(5-(1-(3,4-difluorophenyl)-1H-pyrazol-4-yl)-1H-indol-3-yl)acetamide]
1000 to 5000 nM	CC(=O)Nc1c[nH]c2ccc(-c3cnn(-c4ccc(C5(C)CCCCC5)cc4)c3)cc12 [Compound 171, N-(5-(1-(4-(1-methylcyclohexyl)phenyl)-1H-pyrazol-4-yl)-1H-indol-3-yl)acetamide]
40 to 200 nM	CC(=O)Nc1c[nH]c2ccc(-c3cnn(-c4ccc(C(F)(F)F)cc4Cl)c3)cc12 [Compound 172, N-(5-(1-(2-chloro-4-(trifluoromethyl)phenyl)-1H-pyrazol-4-yl)-1H-indol-3-yl)acetamide]
200 to 1000 nM	CC(C)(O)CC(=O)Nc1c[nH]c2ccc(-c3cnn(-c4ccc(C(F)(F)F)cc4)c3)cc12 [Compound 173, 3-hydroxy-3-methyl-N-(5-(1-(4-(trifluoromethyl)phenyl)-1H-pyrazol-4-yl)-1H-indol-3-yl)butanamide]
200 to 1000 nM	COCC(=O)Nc1c[nH]c2ccc(-c3cnn(-c4ccc(C(F)(F)F)cc4)c3)cc12 [Compound 174, 2-methoxy-N-(5-(1-(4-(trifluoromethyl)phenyl)-1H-pyrazol-4-yl)-1H-indol-3-yl)acetamide]
200 to 1000 nM	CC(=O)Nc1c[nH]c2ccc(-c3cnn([C@@H](C)c4cccc(C(F)(F)F)c4)c3)cc12 [Compound 175, (S)-N-(5-(1-(1-(3-(trifluoromethyl)phenyl)ethyl)-1H-pyrazol-4-yl)-1H-indol-3-yl)acetamide]
200 to 1000 nM	CC(=O)Nc1c[nH]c2ccc(-c3cnn([C@H](C)c4cccc(C(F)(F)F)c4)c3)cc12 [Compound 176, (R)-N-(5-(1-(1-(3-(trifluoromethyl)phenyl)ethyl)-1H-pyrazol-4-yl)-1H-indol-3-yl)acetamide]
40 to 200 nM	COCCCC(=O)Nc1c[nH]c2ccc(-c3cnn(-c4ccc(C(F)(F)F)cc4)c3)cc12 [Compound 177, 4-methoxy-N-(5-(1-(4-(trifluoromethyl)phenyl)-1H-pyrazol-4-yl)-1H-indol-3-yl)butanamide]
200 to 1000 nM	CC(=O)Nc1c[nH]c2ccc(-c3cnn(C(C)c4ccc(C(F)(F)F)cc4)c3)cc12 (stereo not drawn) [Compound 178, N-(5-(1-(1-(4-(trifluoromethyl)phenyl)ethyl)-1H-pyrazol-4-yl)-1H-indol-3-yl)acetamide]
200 to 1000 nM	CC(=O)Nc1c[nH]c2ccc(-c3cnn(C(C)c4cccc(C(F)(F)F)c4)c3)cc12 (stereo not drawn) [Compound 179, N-(5-(1-(1-(3-(trifluoromethyl)phenyl)ethyl)-1H-pyrazol-4-yl)-1H-indol-3-yl)acetamide]
200 to 1000 nM	CC(=O)Nc1c[nH]c2ccc(-c3cnn(Cc4cccc(C(F)(F)F)c4)c3)cc12 [Compound 180, N-(5-(1-(3-(trifluoromethyl)benzyl)-1H-pyrazol-4-yl)-1H-indol-3-yl)acetamide]
5000 to 100000 nM	CC(=O)NC(C)(C)C(=O)Nc1c[nH]c2ccc(-c3cnn(-c4ccc(C(F)(F)F)cc4)c3)cc12 [Compound 181, 2-acetamido-2-methyl-N-(5-(1-(4-(trifluoromethyl)phenyl)-1H-pyrazol-4-yl)-1H-indol-3-yl)propanamide]
